Earlier results, collected in PMC8152572 (Chemical Science, 2020).

System: scFv-SM3
Conditions: SM3 antibody, comparison of 2a, 2b and 2c

Substance: APDTRP [Compound 2c]
- binding to SM3 (in words): worse binding to the naked derivative 2c
